Experimental data from patent publication EP0273199A2, “Uses of 3,4-diphenyl piperidine derivatives or medicines, 3,4-diphenyl piperidine derivatives, and process for their preparation” (LABORATOIRES HOECHST S.A., priority 1986, dated 1988).
Values joined by “and” are separate entries in the source; they are usually repeats but may differ in a detail not shown here. Equal entries are not always repeated. Structures can show the parent of a compound that is named as a salt. Where two headings read alike, the source gives them in different places.

Experiments:
[1] = tested on: Apomorphin 1 mg.kg^-1 s.c.; test: Apomorphine 1 mg/kg s.c. antagonism (no method given); assay type: in vivo; conditions: ip, Tabelle Ib; read-out: Erste wirksame Dosis Apomorphin 1 mg.kg^-1 s.c.
Apomorphin 16 mg/kg = test: Antiapomorphine activity (apomorphine 16 mg/kg s.c., hypothermia); assay type: in vivo, Maus; conditions: ip
Description: Zur Zeit 0 nach Ausgleich der Reaktaltemperaturen werden die Mäuse (6 pro Gruppe) in deren Beobachtung gestattende Einzelkäfige (11 x 3,5 x 4 cm) eingeetzt. 30 Minuten nach i.p. bzw. p.o. Verabreichung der Testsubstanz erhalten sie Apomorphin subkutan in einer Dosis von 16 mg/kg. Die Rektaltemperatur wird 30 Minuten nach dem Apomorphin gemessen. Die Kontrolltiere erhalten destilliertes Wasser statt der zu untersuchenden Verbindungen. Die bei diesen Kontrolltieren, die 16 mg/kg Apomorphin erhalten haben, beobachtete Hypothermie liegt im Durchschnitt bei 33°C. Für jede Verbindungsdosis berechnet man die prozentuale Hemmung der Hypothermie.

Motoraktivität = test: Actimetry (motor activity, photocell actimeter); assay type: in vivo, Maus; conditions: for Motilität: i.p., direction of change; for minimal effective dose: ip, read-out: Erste wirksame Dosis Motilität
Excerpt: Die Motoraktivität wird mittels Photozellenaktimetern bestimmt (Boissier und Simon, Arch. Int. Pharmacodyn. 1965, 158, 212-221).
Die Mäuse (10 oder ein Vielfaches von 10 pro Gruppe) werden unmittelbar nach i.p. Verabreichung der zu untersuchenden Verbindungen in das Aktimeter eingesetzt. Die Motoraktivität wird danach bis zur 60. Minute gemessen. De Zähler werden nach 30 Minuten abgelesen und dann auf 0 zurückgestellt und im Verlauf von 30 Minuten alle 10 Minuten abgelesen.
Die Beweglichkeit der mit den verschiedenen Verbindungen behandelten Tiere wird mit derjenigen einer destilliertes Wasser erhaltenden Kontrollgruppe verglichen.
Die eine psychostimulierende Aktivität besitzenden Produkte verursachen eine Zunahme der Beweglichkeit.

Maus [2] = test: Tail suspension test; assay type: in vivo; conditions: for minimal effective dose: ip; for % Antagonismus / Dauer der Unbeweglichkeit: mouse
Excerpt: Schwanzaufhängungstest an der Maus wie von Stéru u.a. beschrieben (Psychopharmacology 85, 367-370, 1985).
Die Substanzen werden intraperitoneal 30 Minuten vor dem Test verabreicht und die Tiese isoliert (10 Mäuse pro Dosis).
Man bewertet die Dauer der Unbeweglichkeit, ausgedrückt in Sekunden über die 6 Minuten des Tests. Man untersucht auf eine Verkürzung dieser Unbeweglichkeitszeit.

Maus [3] = test: Behavioural despair test (Porsolt forced swimming); assay type: in vivo; conditions: mouse; for Dauer der Unbeweglichkeit: 30 min before test
Excerpt: Test auf verzweifeltes Verhalten, wie von Porsolt u.a. (Arch. Int, Pharmacodyn. Ther. 229, 327 - 336, 1977) beschrieben.
Die Verbindungen werden intraperetoneal 30 Minuten vor dem Test verabreicht, und die Tiere werden vor dem erzwungenen Schwimmtest isoliert gehalten. Man bewertet die Dauer der Unbeweglichkeitsperioden in Sekunden ausgedrückt, die von der 2. bis zur 6. Minute nach dem Einsetzen des Tieres in Wasser gezählt werden.

[4] = tested on: durch Reserpin induzierten Hypothermie; test: Antireserpine activity (reserpine-induced hypothermia); assay type: in vivo, Maus; conditions: ip
Description: Zur Zeit 0 erhalten die Mäuse intraperitoneal Reserpin (2,5 mg/kg).
4 Stunden danach, wenn die Hypothermie genügend stark erscheint (30 bis 33°C), verabreicht man die verschiedenen zu untersuchenden Verbindungen i.p. oder p.o. Alle 30 Minuten über einen Zeitraum von 2 Stunden mißt man die Rektaltemperatur mit einer auf konstante Tiefe eingeführten, ein Thermoelement tragenden Sonde. Die Rektaltemperatur der mit verschiedenen erfindungsgemäßen Verbindungen behandelten Tiere wird mit der Temperatur einer Kontrollgruppe verglichen, die destilliertes Wasser auf die gleiche Weise wie die untersuchten Verbindungen erhält.
Die Akinesie (fehlende Bewegungen) und Ptose (Öffnungsgrad des Augenlids von 0 bis 4 nach Rubin u.a 1957) werden ebenfalls alle 30 Minuten über einen Zeitraum von 2 Stunden bewertet.
Die eine antidepressive Aktivität besitzenden Produkte wirken der durch Reserpin induzierten Hypothermie entgegen. Für jede Dosis der verabreichten Verbindung berechnet man die prozentuale Hemmung der Hypothermie.

Toxizität des Yohimbins = test: Potentiation of yohimbine toxicity; assay type: in vivo, Maus; conditions: for minimal effective dose: ip
Description: Wirkung auf die Toxizität des Yohimbins
Zur Zeit 0 erhalten die Mäuse entweder destilliertes Wasser oder verschiedene zu untersuchende Verbindungen i.p. 30 Minuten danach verabreicht man ihnen subkutan eine infratoxische Dosis von 25 mg/kg Yohimbinchlorhydrat.
Die Mortalität wird jede Stunde über einen Zeitraum von 4 Stunden verfolgt und dann nach 24 Stunden notiert.
Die eine antidepressive Aktivität besitzenden Produkte verursachen eine Potenzierung der Toxizität des Yohimbins.

Maus [5] = test: Hot plate test (licking and jumping), analgesia; assay type: in vivo
Description: Heizplattentest: Lecken und Springen, wie von Jacob und Blozovski beschrieben (Arch. Int. Pharmacodyn. 133, 296-209, 1961).
Die in Sekunden ausgedrückten Reaktionszeiten auf einer Heizplatte werden unter Berücksichtigung des Leckens der Vorderpfoten und Springen des Tieres als Kriterien bewertet. Die beiden Reaktionen werden am selben, anfänglich untrainierten Tier mit einer maximalen Ansprechzeit (Obergrenze) von 240 Sekunden beobachtet. Die Temperatur der Platte wird auf 56,6°C gehalten.
Morphin als positive Kontrolle wird subkutan und die übrigen Substanzen (mg/kg) werden intraperitoneal 30 Minuten vor dem Test verabreicht. Positives Ansprechen zeigt sich in einer Zunahme der Reaktionszeit.
Wird der schadensverhütenden Wirkung eine Substanz durch Naloxon entegengewirkt, so kann man schließen, daß die Substanz tatsächlich eine analgetische Wirkung besitzt.

L-5-Hydroxytryptophan = test: Potentiation of L-5-hydroxytryptophan effects (head twitches, tremor); assay type: in vivo, Maus; conditions: mouse
Description: L-5 HTP induziert an der Maus ruckartige Bewegungen des Kopfes (Kopfzuckungen). Die zu untersuchenden Substanzen werden den Tieren (10 Mäuse pro Dosis) intraperitoneal 30 Minuten vor dem L-5 HTP (4 mg/kg intraperitoneal) verabreicht. Die ruckartigen Kopfbewegungen und der Tremor werden 1 Minutre lang alle 10 Minuten im Verlauf einer Stunde bewertet. Desimipramin und Indalpin sind die Kontrol-(Vergleichs-)verbindungen. Ein antidepressiver Effekt zeigt sich durch eine Zunahme der ruckartigen Kopfbewegungen und des Tremors.

[6] = tested on: durch Oxotremorin induzierten Hypothermie; test: Antioxotremorine activity (oxotremorine-induced hypothermia); assay type: in vivo, Maus; conditions: ip, read-out: Erste wirksame Dosis Oxotremorin
Description: Nach Ausgleich der Rektaltemperaturen erhalten Mäuse (6 pro Gruppe) entweder destillietes Wasser oder die verschiedenen zu untersuchenden Verbindungen i.p.
30 Minuten danach verabreicht man intraperitoneal Oxotremorin in einer Dosis von 0,5 mg/kg.
Die Mäuse werden dan beobachtet: Tremor wird je nach der Intensität von 0 bis 3 bewertet, und die Akinesie wird alle 10 Minuten über einen Zeitraum von 30 Minuten auf Vorliegen oder Fehlen bestimmt.
Außerdem beobachtet man 2 Stunden lang das Erscheinen peripherer Symptome (Tränen, Darmentleerung). Die Rektaltemperatur wird alle 30 Minuten über eine Zeitraum von 2 Stunden nach der Verabreichung des Oxotremorins gemessen.
Die eine antidepressive Aktivität besitzenden Produkte wirken der durch Oxotremorin induzierten Hypothermie entgegen.
Für jede Dosis der Verbindung berechnet man die prozentuale Hemmung der Hypothermie.

[7] = mouse, Tabelle 5a, 16 mg/kg, without Naloxon
[8] = mouse, reaction time, 8 mg/kg i.p., plate 56,6°C
[9] = mouse, reaction time, 16 mg/kg i.p., plate 56,6°C, 16 mg/kg
[10] = mouse, reaction time, 32 mg/kg i.p., plate 56,6°C
[11] = 8 mg/kg i.p., 30 min before L-5 HTP 4 mg/kg i.p.

CN(C)CCCN1c2ccccc2CCc2ccccc21 [IMIPRAMIN]
minimal effective dose [1]: 8 mg/kg
minimal effective dose (Apomorphin 16 mg/kg; Tabelle Ib, read-out: Erste wirksame Dosis Apomorphin 16 mg.kg^-1 s.c.): 4 mg/kg
Motilität (Motoraktivität; Tabelle Ib): ↘
minimal effective dose (Motoraktivität; Tabelle Ib): 128 mg/kg
minimal effective dose (Maus [2]; Tabelle Ib, read-out: Erste wirksame Dosis T.S.T. Maus): 1 to 4 mg/kg
% Antagonismus (Maus [2]; 1 mg/kg i.p.): 31%
Dauer der Unbeweglichkeit (Maus [2]; 1 mg/kg i.p.): 70 ± 17 Sekunden
% Antagonismus (Maus [2]; 2 mg/kg i.p.): 42%
Dauer der Unbeweglichkeit (Maus [2]; 2 mg/kg i.p.): 59 ± 8 p < 0,01 Sekunden
% Antagonismus (Maus [2]; 4 mg/kg i.p.): 48%
Dauer der Unbeweglichkeit (Maus [2]; 4 mg/kg i.p.): 53 ± 11 p < 0,01 Sekunden
% Antagonismus (Maus [2]; 8 mg/kg i.p.): 58%
Dauer der Unbeweglichkeit (Maus [2]; 8 mg/kg i.p.): 48 ± 10 p < 0,01 Sekunden
% Antagonismus (Maus [2]; 16 mg/kg i.p.): 73%
Dauer der Unbeweglichkeit (Maus [2]; 16 mg/kg i.p.): 28 ± 7 p < 0,001 Sekunden
% Antagonismus (Maus [3]; 16 mg/kg i.p.): 37%
Dauer der Unbeweglichkeit (Maus [3]; 16 mg/kg i.p.): 112 ± 23 p < 0,05 Sekunden
minimal effective dose ([4]; Tabelle Ib, read-out: Erste wirksame Dosis Reserpin): 2 mg/kg
minimal effective dose (Toxizität des Yohimbins; Tabelle Ib, read-out: Erste wirksame Dosis Yohimbin): 16 mg/kg

c1ccc([C@@H]2CCNC[C@H]2c2ccccc2)cc1 (relative stereo) [DPPT, trans-3,4-Diphenylpiperidin]
minimal effective dose (Maus [5]; Mus musculus, ip, 0.5 h, read-out: Effekt statistisch gesichert bei): 16 mg/kg
Pfotenlecken (Maus [5]; [7]): 10,0 ± 1,5 p < 00,1 Sekunden and 7,9 ± 0,6 p < 0,02 Sekunden
Sprünge (Maus [5]; [7]): 141 ± 12 p < 0,01 Sekunden and 125 ± 14 p < 0,01 Sekunden
schadenverhütender Effekt, Wechselwirkung mit Naloxon (Maus [5]; mouse, hot plate): unterliegt Antagonismus durch Naloxon
Pfotenlecken (Maus [5]; [8]): 7,0 ± 0,9 Sekunden
Sprünge (Maus [5]; [8]): 103 ± 10 Sekunden
Pfotenlecken (Maus [5]; [9]): 8,7 ± 1,2 p < 0,02 Sekunden and 9,9 ± 2,0 Sekunden
Sprünge (Maus [5]; [9]): 154 ± 11 p < 0,001 Sekunden and 135 ± 14 p < 0,05 Sekunden
Pfotenlecken (Maus [5]; [10]): 13,0 ± 1,7 p < 0,01 Sekunden
Sprünge (Maus [5]; [10]): 193 ± 17 p < 0,001 Sekunden
stimulierender Effekt an der Maus (Motoraktivität; mouse, 16 mg/kg): keinen stimulierenden Effekt
minimal effective dose (Maus [2]; Mus musculus, read-out: bedeutsame Verkürzung der Dauer der Unbeweglichkeit, Dosis): ≥ 2 mg/kg
% Antagonismus (Maus [2]; 1 mg/kg i.p.): 25%
Dauer der Unbeweglichkeit (Maus [2]; 1 mg/kg i.p.): 58 ± 13 Sekunden
% Antagonismus (Maus [2]; 2 mg/kg i.p.): 51%
Dauer der Unbeweglichkeit (Maus [2]; 2 mg/kg i.p.): 38 ± 7 p < 0,01 Sekunden
% Antagonismus (Maus [2]; 4 mg/kg i.p.): 79%
Dauer der Unbeweglichkeit (Maus [2]; 4 mg/kg i.p.): 16 ± 2 p < 0,001 Sekunden
% Antagonismus (Maus [2]; 16 mg/kg i.p.): 84%
Dauer der Unbeweglichkeit (Maus [2]; 16 mg/kg i.p.): 12 ± 3 p < 0,001 Sekunden
minimal effective dose (L-5-Hydroxytryptophan; ip, read-out: Zunahme der durch L-5 HTP induzierten ruckartigen Kopfbewegungen, Effekt gesichert bei): 8 mg/kg
Tremor (L-5-Hydroxytryptophan; [11]): 1,3 ± 0,4
ruckartige Kopfbewegungen (L-5-Hydroxytryptophan; [11]): 4,7 ± 0,6 p < 0,01
Tremor (L-5-Hydroxytryptophan; L-5 HTP potentiation): verstärkt
minimal effective dose at 16 mg/kg (Maus [3]; ip, Porsolt test, effect stronger at 16 mg/kg, read-out: bedeutsame Abnahme in der Dauer der Unbeweglichkeit, Dosis): ≥ 8 mg/kg
% Antagonismus (Maus [3]; 8 mg/kg i.p.): 28%
Dauer der Unbeweglichkeit (Maus [3]; 8 mg/kg i.p.): 141 ± 16 p < 0,02 Sekunden
% Antagonismus (Maus [3]; 16 mg/kg i.p.): 47%
Dauer der Unbeweglichkeit (Maus [3]; 16 mg/kg i.p.): 94 ± 17 p < 0,001 Sekunden

Clc1ccc([C@@H]2CCNC[C@H]2c2ccccc2)cc1Cl [15 (HCl-Salz)]
minimal effective dose ([6]; Mus musculus): 0.25 mg/kg
minimal effective dose (Apomorphin 16 mg/kg; Mus musculus, read-out: Erste wirksame Dosis Apomorphin 16 mg/kg, mouse, i.p., only or lowest value of the cell): 1 mg/kg
Aktimetrie (Motoraktivität; mouse, direction of change of motor activity): ↗
minimal effective dose ([4]; Mus musculus, read-out: Erste wirksame Dosis Reserpin, mouse, i.p., only or lowest value of the cell): 1 mg/kg
Erste wirksame Dosis Yohimbin (Toxizität des Yohimbins; mouse, i.p., only or lowest value of the cell): 1 mg/kg

CCOc1ccccc1OCC1CNCCO1 (stereo not shown) [VILOXAZIN, reference compound]
minimal effective dose [6]: 4 mg/kg
minimal effective dose [1]: > 32 mg/kg
minimal effective dose (Apomorphin 16 mg/kg; read-out: Erste wirksame Dosis Apomorphin 16 mg.kg^-1 s.c., i.p., Tabelle Ib): 8 mg/kg
Motilität (Motoraktivität; Tabelle Ib): ↘
minimal effective dose (Motoraktivität): 16 mg/kg
minimal effective dose (Maus [2]; read-out: Erste wirksame Dosis T.S.T. Maus): 8 mg/kg
minimal effective dose ([4]; read-out: Erste wirksame Dosis Reserpin, i.p., Tabelle Ib): 4 mg/kg
minimal effective dose (Toxizität des Yohimbins; read-out: Erste wirksame Dosis Yohimbin, i.p., Tabelle Ib): 8 mg/kg
